Measured values from US20200331925A1, “HETEROCYCLIC COMPOUNDS FOR THE TREATMENT OF ABNORMAL CELLULAR PROLIFERATION” (G1 Therapeutics, Inc., priority 2018, published 2020).

Key:
Assay type in all cases: biochemical
CDK2/Cyclin E = CDK2/Cyclin E (Homo sapiens, UniProt P24941); experiment: CDK2/Cyclin E kinase assay (Nanosyn, Caliper microfluidic); settings: 12-point dose-response, ATP at Km (100 μM), 3 hr
How it was run: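 Caliper microfluidic mobility-shift readout of phosphorylation of 1 μM substrate peptide by 0.15 nM enzyme at 100 μM ATP (stated as Km), 3 hr incubation. 12-point dose-response in singlicate, staurosporine as reference.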

CDK6/Cyclin D3 = CDK6/Cyclin D3 (Homo sapiens, UniProt Q00534); experiment: CDK6/Cyclin D3 kinase assay (Nanosyn, Caliper microfluidic); settings: 12-point dose-response, ATP at Km (300 μM), 3 hr
Sequence of CDK6/Cyclin D3 (Q00534 whole entry): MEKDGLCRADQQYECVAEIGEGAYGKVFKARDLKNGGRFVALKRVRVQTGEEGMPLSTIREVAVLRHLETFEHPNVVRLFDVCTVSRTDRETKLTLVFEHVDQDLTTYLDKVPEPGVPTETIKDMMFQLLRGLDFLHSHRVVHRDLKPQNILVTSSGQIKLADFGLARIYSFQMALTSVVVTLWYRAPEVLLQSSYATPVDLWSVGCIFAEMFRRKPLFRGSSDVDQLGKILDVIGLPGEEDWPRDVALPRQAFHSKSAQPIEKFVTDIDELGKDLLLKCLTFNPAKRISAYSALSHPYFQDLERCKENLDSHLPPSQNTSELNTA
Sequence of CDK6/Cyclin D3 (P30281 whole entry partner): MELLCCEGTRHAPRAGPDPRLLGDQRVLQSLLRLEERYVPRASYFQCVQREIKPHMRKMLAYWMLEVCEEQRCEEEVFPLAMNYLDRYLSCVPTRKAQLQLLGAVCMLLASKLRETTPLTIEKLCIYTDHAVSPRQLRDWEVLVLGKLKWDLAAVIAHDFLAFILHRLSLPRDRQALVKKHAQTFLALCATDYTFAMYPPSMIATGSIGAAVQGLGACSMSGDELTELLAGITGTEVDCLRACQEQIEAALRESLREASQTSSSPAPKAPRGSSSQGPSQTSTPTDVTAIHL
How it was run: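 Caliper microfluidic assay with 2 nM enzyme, 300 μM ATP and 1 μM phosphoacceptor peptide, incubated for 3 hr. Compounds were run as 12-point dose-response curves in singlicate.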

CDK7/Cyclin H = CDK7/Cyclin H (Homo sapiens, UniProt P50613); experiment: CDK7/Cyclin H kinase assay (Nanosyn, Caliper microfluidic); settings: 12-point dose-response, ATP at Km (50 μM), 17 hr
How it was run: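 Caliper microfluidic mobility-shift assay with 10 nM CDK7/Cyclin H, 50 μM ATP (Km) and 1 μM peptide substrate, incubated 17 hr. Compounds run in 12-point dose-response, singlicate.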

CDK2/Cyclin A = CDK2/Cyclin A (Homo sapiens, UniProt P24941); experiment: CDK2/Cyclin A kinase assay (Nanosyn, Caliper microfluidic); settings: 12-point dose-response, ATP at Km (50 μM), 3 hr
How it was run: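 Caliper microfluidic mobility-shift read-out; 0.1 nM enzyme, 50 μM ATP (Km), 1 μM peptide substrate, 3 hr incubation. 12-point dose-response in singlicate; staurosporine as reference.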

CDK5/p25 = CDK5/p25 (Homo sapiens, UniProt Q00535); experiment: CDK5/p25 kinase assay (Nanosyn, Caliper microfluidic); settings: 12-point dose-response, ATP at Km (20 μM), 3 hr
Sequence of CDK5/p25 (Q00535 whole entry): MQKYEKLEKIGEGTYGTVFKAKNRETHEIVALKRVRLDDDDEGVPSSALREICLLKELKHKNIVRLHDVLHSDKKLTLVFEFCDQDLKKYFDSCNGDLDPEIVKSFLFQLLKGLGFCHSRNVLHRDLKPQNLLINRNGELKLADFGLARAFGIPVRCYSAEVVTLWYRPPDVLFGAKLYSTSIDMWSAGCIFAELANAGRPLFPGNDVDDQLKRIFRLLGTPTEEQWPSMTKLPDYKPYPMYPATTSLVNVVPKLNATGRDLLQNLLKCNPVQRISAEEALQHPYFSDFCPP
Sequence of CDK5/p25 (Q15078 99-307 partner limits assumed): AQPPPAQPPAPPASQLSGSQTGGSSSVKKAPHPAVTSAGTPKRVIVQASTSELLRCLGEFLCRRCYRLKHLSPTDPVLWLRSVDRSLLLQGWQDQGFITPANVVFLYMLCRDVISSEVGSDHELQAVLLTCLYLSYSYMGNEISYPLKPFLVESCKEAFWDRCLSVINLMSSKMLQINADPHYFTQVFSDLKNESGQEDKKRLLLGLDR
How it was run: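 Caliper microfluidic mobility-shift assay, 12-point dose-response in singlicate. CDK5/p25 at 0.1 nM with 20 μM ATP (Km) and 1 μM peptide substrate. Incubation 3 hr.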

CDK1/Cyclin B1 = CDK1/Cyclin B1 (Homo sapiens, UniProt P06493); experiment: CDK1/Cyclin B1 kinase assay (Nanosyn, Caliper microfluidic); settings: 12-point dose-response, ATP at Km (40 μM), 3 hr
Sequence of CDK1/Cyclin B1 (P06493 whole entry): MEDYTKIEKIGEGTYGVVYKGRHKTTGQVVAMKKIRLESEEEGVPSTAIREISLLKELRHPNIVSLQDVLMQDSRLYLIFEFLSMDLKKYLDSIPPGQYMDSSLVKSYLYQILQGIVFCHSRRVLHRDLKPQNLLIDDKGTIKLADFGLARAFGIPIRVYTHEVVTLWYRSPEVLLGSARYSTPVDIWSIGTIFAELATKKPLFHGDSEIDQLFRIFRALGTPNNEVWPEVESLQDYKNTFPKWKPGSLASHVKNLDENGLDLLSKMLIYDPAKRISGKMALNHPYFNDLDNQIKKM
Sequence of CDK1/Cyclin B1 (P14635 whole entry partner): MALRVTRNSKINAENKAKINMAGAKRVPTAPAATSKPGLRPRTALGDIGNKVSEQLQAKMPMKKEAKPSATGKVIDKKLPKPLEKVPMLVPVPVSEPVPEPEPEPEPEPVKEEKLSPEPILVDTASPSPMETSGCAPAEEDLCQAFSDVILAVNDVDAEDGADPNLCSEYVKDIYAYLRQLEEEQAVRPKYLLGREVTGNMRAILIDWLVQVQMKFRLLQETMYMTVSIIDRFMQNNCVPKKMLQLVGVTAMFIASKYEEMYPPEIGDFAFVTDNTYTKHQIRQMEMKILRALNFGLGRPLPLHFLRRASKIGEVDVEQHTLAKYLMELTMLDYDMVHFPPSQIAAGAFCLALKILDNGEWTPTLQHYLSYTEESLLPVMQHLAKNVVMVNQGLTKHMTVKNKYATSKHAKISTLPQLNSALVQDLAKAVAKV
How it was run: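 Mobility-shift microfluidic kinase assay, 12-point dose-response in singlicate. Conditions: 0.08 nM enzyme, 40 μM ATP (Km), 1 μM peptide substrate, 3 hr incubation; staurosporine as reference.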

CDK9/Cyclin T = CDK9/Cyclin T (Homo sapiens, UniProt P50750); experiment: CDK9/Cyclin T kinase assay (Nanosyn, Caliper microfluidic); settings: 12-point dose-response, ATP at Km (10 μM), 17 hr; Table 5
Sequence of CDK9/Cyclin T (P50750 whole entry): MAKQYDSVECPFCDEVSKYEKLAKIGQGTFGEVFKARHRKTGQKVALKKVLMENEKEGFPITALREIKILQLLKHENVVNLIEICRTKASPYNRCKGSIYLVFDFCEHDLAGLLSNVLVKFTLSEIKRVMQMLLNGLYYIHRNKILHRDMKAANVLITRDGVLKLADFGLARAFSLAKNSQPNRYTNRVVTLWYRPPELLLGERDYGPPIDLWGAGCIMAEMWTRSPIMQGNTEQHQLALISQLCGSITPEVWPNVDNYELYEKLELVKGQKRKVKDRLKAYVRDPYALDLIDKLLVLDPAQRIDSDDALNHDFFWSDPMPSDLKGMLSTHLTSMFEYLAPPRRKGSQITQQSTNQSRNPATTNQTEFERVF
Sequence of CDK9/Cyclin T (O60563 whole entry partner): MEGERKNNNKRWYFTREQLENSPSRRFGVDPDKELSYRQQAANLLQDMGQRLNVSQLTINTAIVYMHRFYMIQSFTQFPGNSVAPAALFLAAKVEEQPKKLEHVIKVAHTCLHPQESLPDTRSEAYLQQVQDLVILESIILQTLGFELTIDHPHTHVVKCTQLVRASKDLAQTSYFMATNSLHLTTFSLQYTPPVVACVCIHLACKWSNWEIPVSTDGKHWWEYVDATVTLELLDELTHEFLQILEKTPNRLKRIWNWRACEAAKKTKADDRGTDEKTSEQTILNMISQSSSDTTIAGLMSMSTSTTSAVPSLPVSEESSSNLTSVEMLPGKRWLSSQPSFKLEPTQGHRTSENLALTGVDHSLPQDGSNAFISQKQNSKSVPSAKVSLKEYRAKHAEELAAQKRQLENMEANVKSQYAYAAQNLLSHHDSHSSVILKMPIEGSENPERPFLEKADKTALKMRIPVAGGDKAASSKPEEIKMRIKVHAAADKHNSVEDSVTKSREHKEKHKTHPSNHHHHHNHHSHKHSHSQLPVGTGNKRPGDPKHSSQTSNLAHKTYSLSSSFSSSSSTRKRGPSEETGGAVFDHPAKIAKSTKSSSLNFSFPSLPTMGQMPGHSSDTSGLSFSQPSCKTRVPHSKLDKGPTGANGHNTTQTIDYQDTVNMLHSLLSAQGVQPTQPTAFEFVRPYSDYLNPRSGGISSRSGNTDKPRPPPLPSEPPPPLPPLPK
How it was run: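 Caliper microfluidic mobility-shift read-out, 12-point dose-response in singlicate at ATP Km with 1 μM peptide substrate; staurosporine reference.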

CDK3/Cyclin E = CDK3/Cyclin E (Homo sapiens, UniProt Q00526); experiment: CDK3/Cyclin E kinase assay (Nanosyn, Caliper microfluidic); settings: 12-point dose-response, ATP at Km (400 μM), 3 hr
How it was run: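 Caliper microfluidic mobility-shift read-out with 1 nM enzyme, 400 μM ATP (stated as Km) and 1 μM peptide substrate, 3 hr incubation. Compounds run as 12-point dose-response in singlicate.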

CDK5/p35 = CDK5/p35 (Homo sapiens, UniProt Q00535); experiment: CDK5/p35 kinase assay (Nanosyn, Caliper microfluidic); settings: 12-point dose-response, ATP at Km (20 μM), 3 hr
Sequence of CDK5/p35 (Q00535 whole entry): as the sequence (Q00535 whole entry) above
Sequence of CDK5/p35 (Q15078 whole entry partner): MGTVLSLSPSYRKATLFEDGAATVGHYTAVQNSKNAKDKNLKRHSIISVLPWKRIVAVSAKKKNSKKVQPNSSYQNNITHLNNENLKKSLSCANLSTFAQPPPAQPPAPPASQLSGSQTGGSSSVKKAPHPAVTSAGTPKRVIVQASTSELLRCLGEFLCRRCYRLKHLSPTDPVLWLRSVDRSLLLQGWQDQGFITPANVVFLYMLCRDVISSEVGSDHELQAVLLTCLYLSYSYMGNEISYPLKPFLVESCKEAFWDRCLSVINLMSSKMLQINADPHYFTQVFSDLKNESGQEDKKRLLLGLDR
How it was run: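 Microfluidic mobility-shift kinase assay with 0.05 nM CDK5/p35, 20 μM ATP (Km) and 1 μM peptide substrate, 3 hr incubation. Compounds tested as 12-point dose–response in singlicate; staurosporine as reference.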

CDK4/Cyclin D1 = CDK4/Cyclin D1 (Homo sapiens, UniProt P11802); experiment: CDK4/Cyclin D1 kinase assay (Nanosyn, Caliper microfluidic); settings: 12-point dose-response, ATP at Km (200 μM), 3 hr; Table 4
Sequence of CDK4/Cyclin D1 (P11802 whole entry): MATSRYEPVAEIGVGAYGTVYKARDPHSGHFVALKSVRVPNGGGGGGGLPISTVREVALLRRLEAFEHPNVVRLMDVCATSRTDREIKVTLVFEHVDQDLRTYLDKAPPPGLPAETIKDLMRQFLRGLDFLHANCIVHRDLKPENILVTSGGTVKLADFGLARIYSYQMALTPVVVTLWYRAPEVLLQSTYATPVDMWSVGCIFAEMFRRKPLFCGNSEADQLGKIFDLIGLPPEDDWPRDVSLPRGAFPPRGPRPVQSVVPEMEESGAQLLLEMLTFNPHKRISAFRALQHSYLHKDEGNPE
Sequence of CDK4/Cyclin D1 (P24385 whole entry partner): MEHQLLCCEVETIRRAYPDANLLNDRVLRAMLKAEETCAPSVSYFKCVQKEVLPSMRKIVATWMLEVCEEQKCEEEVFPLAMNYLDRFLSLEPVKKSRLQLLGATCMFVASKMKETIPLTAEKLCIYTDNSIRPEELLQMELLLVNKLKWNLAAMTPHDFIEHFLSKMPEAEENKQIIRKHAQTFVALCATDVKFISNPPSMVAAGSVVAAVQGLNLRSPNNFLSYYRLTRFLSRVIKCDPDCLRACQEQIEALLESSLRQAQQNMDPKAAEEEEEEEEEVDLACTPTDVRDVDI
How it was run: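 Caliper microfluidic mobility-shift read-out, 12-point dose-response in singlicate. 1 nM enzyme, 200 μM ATP (Km), 1 μM peptide substrate, 3 hr incubation; staurosporine as reference.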

| Compound | IC50 (CDK2/Cyclin E) [µM] | IC50 (CDK6/Cyclin D3) [µM] | IC50 (CDK7/Cyclin H) [µM] | IC50 (CDK2/Cyclin A) [µM] | IC50 (CDK5/p25) [µM] | IC50 (CDK1/Cyclin B1) [µM] | IC50 (CDK9/Cyclin T) [µM] | IC50 (CDK3/Cyclin E) [µM] | IC50 (CDK5/p35) [µM] | IC50 (CDK4/Cyclin D1) [µM] |
| --- | --- | --- | --- | --- | --- | --- | --- | --- | --- | --- |
| C1=NCC2(CCCCC2)n2c1cc1cnc(N[C@H]3CCCNC3)nc12 [Compound 50, (S)-N-(piperidin-3-yl)-8′H-spiro[cyclohexane-1,9′-pyrazino[1′,2′:1,5]pyrrolo[2,3-d]pyrimidin]-2′-amine] | 0.19 | 1.1 | 0.042 | 0.28 | 0.19 | 0.28 | 0.023 | 0.064 | 0.18 | 0.31 |
| C1=NCC2(CCCCC2)n2c1cc1cnc(N[C@@H]3CCCNC3)nc12 [Compound 51, (R)-N-(piperidin-3-yl)-8′H-spiro[cyclohexane-1,9′-pyrazino[1′,2′:1,5]pyrrolo[2,3-d]pyrimidin]-2′-amine] | 0.49 | 1.1 | 0.23 | 0.9 | 1.5 | 1.6 | 0.2 | 0.61 | 1.5 | 0.29 |
| C1=NCC2(CCCCC2)n2c1cc1cnc(NC3CCOCC3)nc12 [Compound 52, N-(tetrahydro-2H-pyran-4-yl)-8′H-spiro[cyclohexane-1,9′-pyrazino[1′,2′:1,5]pyrrolo[2,3-d]pyrimidin]-2′-amine] | 0.0087 | 0.25 | 0.28 | 0.016 | 0.031 | 0.078 | 0.058 | 0.024 | 0.032 | 0.067 |
| C[C@H]1CC[C@@H](Nc2ncc3cc4n(c3n2)C2(CCCCC2)CN=C4)CC1 [Compound 53, N-((1s,4s)-4-methylcyclohexyl)-8′H-spiro[cyclohexane-1,9′-pyrazino[1′,2′:1,5]pyrrolo[2,3-d]pyrimidin]-2′-amine] | 0.48 | 9 | 4.6 | 0.67 | 1.5 | 1.5 | 0.89 | 0.85 | 1.5 | 2.9 |
| C[C@H]1CC[C@H](Nc2ncc3cc4n(c3n2)C2(CCCCC2)CN=C4)CC1 [Compound 54, N-((1r,4r)-4-methylcyclohexyl)-8′H-spiro[cyclohexane-1,9′-pyrazino[1′,2′:1,5]pyrrolo[2,3-d]pyrimidin]-2′-amine] | 0.26 | 2 | 3.6 | 0.42 | 0.66 | 1.7 | 0.6 | 0.64 | 0.74 | 0.67 |

Now from value to compound:

| IC50 (CDK2/Cyclin E) [µM] | IC50 (CDK6/Cyclin D3) [µM] | IC50 (CDK7/Cyclin H) [µM] | IC50 (CDK2/Cyclin A) [µM] | IC50 (CDK5/p25) [µM] | IC50 (CDK1/Cyclin B1) [µM] | IC50 (CDK9/Cyclin T) [µM] | IC50 (CDK3/Cyclin E) [µM] | IC50 (CDK5/p35) [µM] | IC50 (CDK4/Cyclin D1) [µM] | Compound |
| --- | --- | --- | --- | --- | --- | --- | --- | --- | --- | --- |
| 0.47 | 0.078 | 0.28 | 0.25 | 0.76 | 0.51 | 0.0064 | 0.52 | 0.71 | 0.021 | O=C1NCC2(CCCCC2)n2c1cc1cnc(N[C@H]3CC[C@H](N4CCCCC4)CC3)nc12 [Compound 46, 2′-(((1,4-trans)-4-(piperidin-1-yl)cyclohexyl)amino)-7′,8′-dihydro-6′H-spiro[cyclohexane-1,9′-pyrazino[1′,2′:1,5]pyrrolo[2,3-d]pyrimidin]-6′-one] |
| 0.55 | 0.37 | 0.027 | 0.35 | 0.23 | 0.17 | 0.0026 | 0.11 | 0.25 | 0.13 | O=C1NCC2(CCCCC2)n2c1cc1cnc(N[C@H]3CCCNC3)nc12 [Compound 47, (S)-2′-(piperidin-3-ylamino)-7′,8′-dihydro-6′H-spiro[cyclohexane-1,9′-pyrazino[1′,2′:1,5]pyrrolo[2,3-d]pyrimidin]-6′-one] |
| 1.1 | 0.23 | 0.33 | 0.39 | 1.2 | 0.51 | 0.009 | 1 | 1.3 | 0.051 | O=C1NCC2(CCCCC2)n2c1cc1cnc(N[C@@H]3CCCNC3)nc12 [Compound 48, (R)-2′-(piperidin-3-ylamino)-7′,8′-dihydro-6′H-spiro[cyclohexane-1,9′-pyrazino[1′,2′:1,5]pyrrolo[2,3-d]pyrimidin]-6′-one] |
| 0.072 | 0.04 | 0.1 | 0.033 | 0.14 | 0.14 | 0.0022 | 0.11 | 0.16 | 0.0068 | N[C@H]1CC[C@H](Nc2ncc3cc4n(c3n2)C2(CCCCC2)CNC4=O)CC1 [Compound 49, 2′-(((1r,4r)-4-aminocyclohexyl)amino)-7′,8′-dihydro-6′H-spiro[cyclohexane-1,9′-pyrazino[1′,2′:1,5]pyrrolo[2,3-d]pyrimidin]-6′-one] |
| 0.33 | 0.68 | 0.12 | 0.81 | 2 | 1.4 | 0.022 | 0.46 | 1.7 | 0.092 | N[C@H]1CC[C@@H](Nc2ncc3cc4n(c3n2)C2(CCCCC2)CN=C4)CC1 [Compound 55, (1s,4s)-N^1-(8′H-spiro[cyclohexane-1,9′-pyrazino[1′,2′:1,5]pyrrolo[2,3-d]pyrimidin]-2′-yl)cyclohexane-1,4-diamine] |
